Measured values: ChEMBL document CHEMBL4507319 (2021)

Assays:
[1] = target: Serine/threonine-protein kinase WNK2 (Homo sapiens) (UniProt Q9Y3S1); conditions: Compound concentration 1000.0 nM
[2] = target: T1, Dual specificity mitogen-activated protein kinase kinase 6 (Homo sapiens) (UniProt P52564); conditions: Compound concentration 1000.0 nM
T1 sequence (whole entry): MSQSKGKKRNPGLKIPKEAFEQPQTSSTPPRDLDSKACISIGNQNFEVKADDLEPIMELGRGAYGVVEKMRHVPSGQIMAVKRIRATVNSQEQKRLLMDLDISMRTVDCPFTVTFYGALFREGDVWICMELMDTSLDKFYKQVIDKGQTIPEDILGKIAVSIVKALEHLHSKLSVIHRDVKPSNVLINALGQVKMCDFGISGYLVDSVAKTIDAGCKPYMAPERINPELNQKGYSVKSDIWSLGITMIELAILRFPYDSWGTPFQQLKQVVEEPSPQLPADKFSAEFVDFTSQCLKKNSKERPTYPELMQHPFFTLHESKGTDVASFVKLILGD

[3] = target: Phosphorylase b kinase regulatory subunit alpha, liver isoform (Homo sapiens) (UniProt P46019); conditions: Compound concentration 1000.0 nM
[4] = target: Atypical kinase COQ8B, mitochondrial (Homo sapiens) (UniProt Q96D53); conditions: Compound concentration 1000.0 nM
[5] = target: 5'-AMP-activated protein kinase catalytic subunit alpha-1 (Homo sapiens, UniProt Q13131); assay: Cellular mechanistic pACC assay using Colo-320 cells; assay type: cell-based
[6] = target: T2, Serine/threonine-protein kinase NLK (Homo sapiens) (UniProt Q9UBE8); conditions: Compound concentration 1000.0 nM
T2 sequence (whole entry): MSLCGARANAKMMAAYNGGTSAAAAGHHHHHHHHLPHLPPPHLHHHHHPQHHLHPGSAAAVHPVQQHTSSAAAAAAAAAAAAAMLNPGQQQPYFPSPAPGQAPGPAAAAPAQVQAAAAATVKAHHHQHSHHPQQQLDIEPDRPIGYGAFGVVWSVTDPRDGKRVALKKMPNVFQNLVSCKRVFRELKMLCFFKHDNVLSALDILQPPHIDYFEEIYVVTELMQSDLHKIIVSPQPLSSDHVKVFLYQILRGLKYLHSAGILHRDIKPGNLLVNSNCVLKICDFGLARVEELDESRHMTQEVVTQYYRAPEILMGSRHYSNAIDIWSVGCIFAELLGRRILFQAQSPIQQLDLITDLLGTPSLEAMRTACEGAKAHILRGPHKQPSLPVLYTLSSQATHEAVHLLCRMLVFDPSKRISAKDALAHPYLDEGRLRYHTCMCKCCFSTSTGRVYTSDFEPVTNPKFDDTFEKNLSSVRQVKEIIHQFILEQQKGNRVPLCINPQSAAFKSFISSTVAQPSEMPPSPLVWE

[7] = target: MAP kinase-interacting serine/threonine-protein kinase 2 (Homo sapiens) (UniProt Q9HBH9); conditions: Compound concentration 1000.0 nM
[8] = target: Misshapen-like kinase 1 (Homo sapiens) (UniProt Q8N4C8); conditions: Compound concentration 1000.0 nM
[9] = target: T3, Serine/threonine-protein kinase D1 (Homo sapiens) (UniProt Q15139); conditions: Compound concentration 1000.0 nM
T3 sequence (whole entry): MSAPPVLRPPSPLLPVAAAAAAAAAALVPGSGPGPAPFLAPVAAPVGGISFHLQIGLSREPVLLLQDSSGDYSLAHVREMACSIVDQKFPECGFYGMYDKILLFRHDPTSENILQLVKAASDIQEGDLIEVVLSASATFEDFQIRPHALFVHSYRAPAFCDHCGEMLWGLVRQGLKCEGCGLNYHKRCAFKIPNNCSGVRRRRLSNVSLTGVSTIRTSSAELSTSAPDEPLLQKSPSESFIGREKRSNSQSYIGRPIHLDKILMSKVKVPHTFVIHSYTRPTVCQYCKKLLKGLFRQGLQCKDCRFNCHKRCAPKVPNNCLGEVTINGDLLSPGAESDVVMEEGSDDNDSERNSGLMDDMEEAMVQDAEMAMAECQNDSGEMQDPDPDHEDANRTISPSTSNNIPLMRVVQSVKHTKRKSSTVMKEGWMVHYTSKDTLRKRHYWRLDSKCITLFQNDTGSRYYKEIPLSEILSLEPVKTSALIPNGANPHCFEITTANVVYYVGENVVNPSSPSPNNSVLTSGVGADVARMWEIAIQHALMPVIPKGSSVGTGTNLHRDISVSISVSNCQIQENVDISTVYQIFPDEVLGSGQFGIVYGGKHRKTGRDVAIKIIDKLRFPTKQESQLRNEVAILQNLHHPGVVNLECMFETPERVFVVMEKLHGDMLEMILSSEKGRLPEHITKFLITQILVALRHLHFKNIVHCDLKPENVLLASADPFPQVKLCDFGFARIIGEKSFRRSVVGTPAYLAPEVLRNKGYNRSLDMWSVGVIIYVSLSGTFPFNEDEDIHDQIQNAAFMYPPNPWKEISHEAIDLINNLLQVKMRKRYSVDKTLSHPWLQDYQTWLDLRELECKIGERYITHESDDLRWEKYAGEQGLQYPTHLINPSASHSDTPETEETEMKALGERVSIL

[10] = target: Serine/threonine-protein kinase 24 (Homo sapiens, UniProt Q9Y6E0); conditions: Compound concentration 1000.0 nM
[11] = target: Serine/threonine-protein kinase 32B (Homo sapiens) (UniProt Q9NY57); conditions: Compound concentration 1000.0 nM
Serine/threonine-protein kinase 32B (Homo sapiens), sequence (Q9NY57 whole entry): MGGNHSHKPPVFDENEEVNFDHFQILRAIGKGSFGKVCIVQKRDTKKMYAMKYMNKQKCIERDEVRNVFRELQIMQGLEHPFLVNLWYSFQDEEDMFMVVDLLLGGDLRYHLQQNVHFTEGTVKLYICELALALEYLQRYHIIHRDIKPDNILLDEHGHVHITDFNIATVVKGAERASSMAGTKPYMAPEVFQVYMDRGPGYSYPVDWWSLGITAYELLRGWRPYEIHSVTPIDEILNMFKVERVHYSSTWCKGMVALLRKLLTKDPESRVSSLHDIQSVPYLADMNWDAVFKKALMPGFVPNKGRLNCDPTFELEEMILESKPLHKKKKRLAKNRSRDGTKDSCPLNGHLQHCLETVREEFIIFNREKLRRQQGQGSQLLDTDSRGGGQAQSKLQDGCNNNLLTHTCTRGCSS

Misshapen-like kinase 1 (Homo sapiens), sequence (Q8N4C8 whole entry, looked up): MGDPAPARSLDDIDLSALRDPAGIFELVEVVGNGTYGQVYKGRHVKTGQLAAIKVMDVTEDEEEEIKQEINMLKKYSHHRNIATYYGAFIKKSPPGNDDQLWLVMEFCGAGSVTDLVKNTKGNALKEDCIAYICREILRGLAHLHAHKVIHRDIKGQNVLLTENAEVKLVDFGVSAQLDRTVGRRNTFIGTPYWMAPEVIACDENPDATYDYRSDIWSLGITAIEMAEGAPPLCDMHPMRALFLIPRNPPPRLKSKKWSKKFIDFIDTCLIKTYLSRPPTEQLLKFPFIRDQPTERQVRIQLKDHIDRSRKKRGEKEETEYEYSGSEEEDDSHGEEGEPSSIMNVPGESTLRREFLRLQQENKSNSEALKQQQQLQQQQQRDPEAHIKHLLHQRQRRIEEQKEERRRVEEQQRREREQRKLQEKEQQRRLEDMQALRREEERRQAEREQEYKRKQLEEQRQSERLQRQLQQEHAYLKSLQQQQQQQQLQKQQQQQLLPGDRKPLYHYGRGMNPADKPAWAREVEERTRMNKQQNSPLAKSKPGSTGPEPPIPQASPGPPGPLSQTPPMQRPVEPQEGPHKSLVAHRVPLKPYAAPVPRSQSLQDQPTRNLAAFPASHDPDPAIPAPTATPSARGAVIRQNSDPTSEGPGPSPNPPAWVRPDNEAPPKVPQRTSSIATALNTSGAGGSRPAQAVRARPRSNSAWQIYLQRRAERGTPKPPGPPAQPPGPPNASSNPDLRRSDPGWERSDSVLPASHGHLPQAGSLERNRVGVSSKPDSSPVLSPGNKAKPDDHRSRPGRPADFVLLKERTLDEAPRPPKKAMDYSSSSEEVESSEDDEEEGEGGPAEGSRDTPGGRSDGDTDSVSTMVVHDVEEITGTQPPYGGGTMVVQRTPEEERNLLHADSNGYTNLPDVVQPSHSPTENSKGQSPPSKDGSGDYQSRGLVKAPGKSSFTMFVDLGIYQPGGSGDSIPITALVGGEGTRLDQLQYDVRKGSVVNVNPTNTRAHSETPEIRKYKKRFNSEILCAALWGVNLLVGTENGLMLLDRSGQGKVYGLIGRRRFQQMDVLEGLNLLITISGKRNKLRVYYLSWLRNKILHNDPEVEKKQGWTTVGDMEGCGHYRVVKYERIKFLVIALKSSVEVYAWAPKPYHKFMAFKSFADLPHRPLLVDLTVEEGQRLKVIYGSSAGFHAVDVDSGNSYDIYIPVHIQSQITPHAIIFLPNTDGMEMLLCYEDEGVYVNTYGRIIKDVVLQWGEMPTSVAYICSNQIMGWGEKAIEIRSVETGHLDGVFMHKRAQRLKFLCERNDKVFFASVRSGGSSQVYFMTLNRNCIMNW
Phosphorylase b kinase regulatory subunit alpha, liver isoform (Homo sapiens), sequence (P46019 whole entry, canonical isoform): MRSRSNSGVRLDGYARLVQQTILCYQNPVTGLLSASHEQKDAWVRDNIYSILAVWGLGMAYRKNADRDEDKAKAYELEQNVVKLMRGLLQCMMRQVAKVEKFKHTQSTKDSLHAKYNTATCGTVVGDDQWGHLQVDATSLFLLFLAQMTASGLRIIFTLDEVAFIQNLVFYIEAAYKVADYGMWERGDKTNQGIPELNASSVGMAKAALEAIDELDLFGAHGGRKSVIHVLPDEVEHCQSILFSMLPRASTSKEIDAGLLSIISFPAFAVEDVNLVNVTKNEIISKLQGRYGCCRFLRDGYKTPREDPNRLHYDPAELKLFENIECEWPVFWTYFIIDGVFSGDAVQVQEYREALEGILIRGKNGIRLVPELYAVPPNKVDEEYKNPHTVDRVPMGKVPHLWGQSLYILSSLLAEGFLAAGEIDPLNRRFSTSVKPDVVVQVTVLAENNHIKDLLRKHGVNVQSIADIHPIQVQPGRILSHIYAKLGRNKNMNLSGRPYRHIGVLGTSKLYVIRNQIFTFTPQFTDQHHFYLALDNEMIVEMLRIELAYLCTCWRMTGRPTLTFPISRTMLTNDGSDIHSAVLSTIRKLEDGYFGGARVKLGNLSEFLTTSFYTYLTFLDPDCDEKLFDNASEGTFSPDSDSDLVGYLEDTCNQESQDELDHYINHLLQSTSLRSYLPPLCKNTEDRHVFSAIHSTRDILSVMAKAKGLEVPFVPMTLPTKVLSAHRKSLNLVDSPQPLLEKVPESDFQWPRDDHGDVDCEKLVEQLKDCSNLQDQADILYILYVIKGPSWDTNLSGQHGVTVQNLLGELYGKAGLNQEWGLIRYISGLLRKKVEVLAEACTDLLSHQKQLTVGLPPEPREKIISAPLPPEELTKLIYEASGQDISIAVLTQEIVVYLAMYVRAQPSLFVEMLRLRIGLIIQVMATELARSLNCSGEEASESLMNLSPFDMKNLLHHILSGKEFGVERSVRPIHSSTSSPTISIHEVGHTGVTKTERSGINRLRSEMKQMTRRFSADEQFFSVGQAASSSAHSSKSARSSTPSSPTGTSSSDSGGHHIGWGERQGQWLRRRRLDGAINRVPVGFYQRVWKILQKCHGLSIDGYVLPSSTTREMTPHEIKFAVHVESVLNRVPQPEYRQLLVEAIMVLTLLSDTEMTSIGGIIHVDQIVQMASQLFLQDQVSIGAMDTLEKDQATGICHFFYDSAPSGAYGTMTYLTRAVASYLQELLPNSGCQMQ
Atypical kinase COQ8B, mitochondrial (Homo sapiens), sequence (Q96D53 whole entry): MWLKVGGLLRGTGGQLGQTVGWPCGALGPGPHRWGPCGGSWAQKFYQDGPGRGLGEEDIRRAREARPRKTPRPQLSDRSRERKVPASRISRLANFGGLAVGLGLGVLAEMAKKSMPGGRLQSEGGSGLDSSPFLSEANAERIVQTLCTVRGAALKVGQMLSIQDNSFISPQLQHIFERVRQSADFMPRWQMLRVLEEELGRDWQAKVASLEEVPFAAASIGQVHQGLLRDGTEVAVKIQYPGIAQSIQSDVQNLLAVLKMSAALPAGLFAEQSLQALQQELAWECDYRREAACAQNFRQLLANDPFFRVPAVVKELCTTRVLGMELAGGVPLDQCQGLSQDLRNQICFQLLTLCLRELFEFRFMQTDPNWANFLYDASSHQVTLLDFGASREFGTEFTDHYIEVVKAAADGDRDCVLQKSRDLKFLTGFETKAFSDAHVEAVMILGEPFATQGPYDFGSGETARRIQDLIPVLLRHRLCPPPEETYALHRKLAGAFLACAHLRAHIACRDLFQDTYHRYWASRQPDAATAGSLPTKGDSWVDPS
MAP kinase-interacting serine/threonine-protein kinase 2 (Homo sapiens), sequence (Q9HBH9 whole entry, looked up): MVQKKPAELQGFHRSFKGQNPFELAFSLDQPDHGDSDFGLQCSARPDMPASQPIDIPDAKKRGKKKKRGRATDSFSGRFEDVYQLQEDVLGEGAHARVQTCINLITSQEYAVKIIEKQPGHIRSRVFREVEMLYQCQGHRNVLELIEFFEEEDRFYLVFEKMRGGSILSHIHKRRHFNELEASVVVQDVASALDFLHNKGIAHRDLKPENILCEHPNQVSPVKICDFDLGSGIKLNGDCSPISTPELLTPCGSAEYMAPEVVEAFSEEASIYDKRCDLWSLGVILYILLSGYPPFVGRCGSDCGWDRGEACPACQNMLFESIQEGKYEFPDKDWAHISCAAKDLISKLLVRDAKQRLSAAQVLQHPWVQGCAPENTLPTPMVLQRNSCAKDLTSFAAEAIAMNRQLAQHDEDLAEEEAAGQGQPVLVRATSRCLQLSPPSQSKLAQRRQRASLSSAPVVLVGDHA
5'-AMP-activated protein kinase catalytic subunit alpha-1, sequence (Q13131 whole entry): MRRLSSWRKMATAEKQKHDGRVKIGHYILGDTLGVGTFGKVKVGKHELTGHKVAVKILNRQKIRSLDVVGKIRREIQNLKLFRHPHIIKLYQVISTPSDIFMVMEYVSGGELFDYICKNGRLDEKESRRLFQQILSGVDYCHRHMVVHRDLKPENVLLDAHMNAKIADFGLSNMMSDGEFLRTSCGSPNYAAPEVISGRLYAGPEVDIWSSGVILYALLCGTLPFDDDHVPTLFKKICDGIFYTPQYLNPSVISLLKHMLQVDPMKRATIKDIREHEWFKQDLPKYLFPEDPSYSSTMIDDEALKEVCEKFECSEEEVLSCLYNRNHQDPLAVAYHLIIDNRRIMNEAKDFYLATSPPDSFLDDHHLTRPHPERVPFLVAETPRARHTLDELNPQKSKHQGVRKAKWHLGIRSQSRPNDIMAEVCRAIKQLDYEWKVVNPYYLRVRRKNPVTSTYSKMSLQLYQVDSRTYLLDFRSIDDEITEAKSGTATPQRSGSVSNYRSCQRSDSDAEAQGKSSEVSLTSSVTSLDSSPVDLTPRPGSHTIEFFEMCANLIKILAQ
Serine/threonine-protein kinase 24, sequence (Q9Y6E0 whole entry, looked up): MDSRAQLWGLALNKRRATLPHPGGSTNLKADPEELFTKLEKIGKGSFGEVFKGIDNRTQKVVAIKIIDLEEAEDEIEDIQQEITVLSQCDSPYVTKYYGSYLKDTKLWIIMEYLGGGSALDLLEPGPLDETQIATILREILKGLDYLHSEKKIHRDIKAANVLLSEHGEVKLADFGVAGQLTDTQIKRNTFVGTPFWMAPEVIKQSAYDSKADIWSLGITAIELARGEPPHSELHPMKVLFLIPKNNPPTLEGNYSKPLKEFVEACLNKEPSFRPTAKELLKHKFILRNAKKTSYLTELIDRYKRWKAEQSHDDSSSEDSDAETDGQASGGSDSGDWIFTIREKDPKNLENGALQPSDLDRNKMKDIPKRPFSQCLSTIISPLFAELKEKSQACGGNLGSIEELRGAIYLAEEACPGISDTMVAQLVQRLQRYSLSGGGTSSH

| Structure (SMILES) | residual activity [1] [%] | residual activity [2] [%] | residual activity [3] [%] | residual activity [4] [%] | IC50 [5] | residual activity [6] [%] | residual activity [7] [%] | residual activity [8] [%] | residual activity [9] [%] | residual activity [10] [%] | residual activity [11] [%] |
| --- | --- | --- | --- | --- | --- | --- | --- | --- | --- | --- | --- |
| CCc1ccccc1C(=O)Nc1n[nH]c2c(C)c(F)c(C3C(C#N)=C(C)N(C)C(C)=C3C#N)cc12 [BAY-3827] | 100 | 98 | 81 | 96 | 390 nM | 100 | 98 | 99 | 100 | 90 | 98 |
| CC1=C(C#N)C(c2ccc3c(c2)c(NC(=O)c2ccccc2C)nn3C)C(C#N)=C(C)N1 [BAY-974] | 75 | 95 | 89 | 100 | > 30000 nM (not active) | 100 | 100 | 96 | 92 | 100 | 100 |
